Data taken from US20240025862A1, “SUBSTITUTED N-PHENYLURACILS AND SALTS THEREOF, AND USE THEREOF AS HERBICIDAL ACTIVE SUBSTANCES” (Bayer Aktiengesellschaft, priority 2020, published 2024).
Values belong to the compound of their own block, whether it stands above or below them.

How the values were obtained:
Assay type in all cases: in vivo
[1] = tested on: Pharbitis purpurea (PHBPU); assay: Post-emergence herbicidal action, greenhouse pot test
Summary of the method: (§1)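 Greenhouse-grown weeds in sandy loam were sprayed post-emergence at the one-leaf stage, 2–3 weeks after sowing. Compounds were formulated as WP or EC in water with 0.5% additive at 600 l/ha, at rates of 20 g/ha or less. Visual rating after about 3 weeks used a scale from 0% (like untreated control) to 100% (plants dead).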

Lolium rigidum (LOLRI) = assay: as above; conditions: dosage 20 g/ha
Summary of the method: as §1

Veronica persica (VERPE) = assay: as above
Summary of the method: as §1

[2] = tested on: Abutilon theophrasti (ABUTH); assay: as above; conditions: rated visually after about 3 weeks vs untreated controls, 100% = plants have died
Summary of the method: as §1

Viola tricolor (VIOTR) = assay: as above
Summary of the method: as §1

[3] = tested on: Polygonum convolvulus (POLCO); assay: as above
Summary of the method: as §1

[4] = tested on: Amaranthus retroflexus (AMARE); assay: as above; conditions: rated visually after about 3 weeks vs untreated controls, 100% = plants have died
Summary of the method: as §1

Avena fatua (AVEFA) = assay: as above; conditions: 20 g/ha, rated visually after about 3 weeks vs untreated controls, 100% = plants have died
Summary of the method: as §1

[5] = tested on: Triticum aestivum (TRZAS); assay: Post-emergence crop plant compatibility, greenhouse pot test; conditions: vs untreated controls
Summary of the method: (§2)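 Crop plants grown in sandy loam in the greenhouse were sprayed post-emergence at the one-leaf stage, 2–3 weeks after sowing, with WP or EC formulations as aqueous suspension/emulsion plus 0.5% additive at 600 l/ha. Damage was rated visually about 3 weeks later versus untreated controls (0% = like control, 100% = plants dead).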

Zea mays (ZEAMX) = assay: as above; conditions: vs untreated controls
Summary of the method: as §2

Glycine max (GLXMA) = assay: as above
Summary of the method: as §2

Oryza sativa (ORYSA) = assay: Post-emergence crop plant compatibility, greenhouse pot test (also comparative test C); conditions: for Post-emergence action against ORYSA (crop plant compatibility): vs untreated controls
Summary of the method: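 Rice and other crops sprayed post-emergence at one-leaf stage (2–3 weeks after sowing) with WP or EC formulations plus 0.5% additive at 600 l/ha water. Visual rating about 3 weeks later versus untreated controls (100% = dead, 0% = like control); suffixes a–c denote different doses.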

[6] = tested on: Echinochloa crus-galli (ECHCG); assay: Post-emergence herbicidal action, greenhouse pot test (also comparative test C); conditions: for Post-emergence action at 1.25 g/ha against ECHCG in %: rated visually after about 3 weeks vs untreated controls, 100% = plants have died
Summary of the method: (§3)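 Greenhouse pot plants in sandy loam were sprayed post-emergence at the one-leaf stage (2–3 weeks after sowing) with WP or EC formulations plus 0.5% additive at 600 l/ha water. Activity was rated visually after about 3 weeks versus untreated controls (100% = dead, 0% = like control); rates were 20 g/ha or less, and 5 g/ha or less in the comparative test.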

[7] = tested on: Alopecurus myosuroides (ALOMY); assay: as above; conditions: rated visually after about 3 weeks vs untreated controls, 100% = plants have died
Summary of the method: as §3

[8] = tested on: Matricaria inodora (MATIN); assay: as above
Summary of the method: as §3

Setaria viridis (SETVI) = assay: as above
Summary of the method: as §3

Post-emergence action against TRZAS (crop plant compatibility) ([5]; 1.25 g/ha): 10%
Post-emergence action against TRZAS (crop plant compatibility) ([5]; 5 g/ha): 20%
Post-emergence action against TRZAS (crop plant compatibility) ([5]; 20 g/ha): 20%
Post-emergence action against ZEAMX (crop plant compatibility) (Zea mays (ZEAMX); 1.25 g/ha): 10%
Post-emergence action against ZEAMX (crop plant compatibility) (Zea mays (ZEAMX); 5 g/ha): 20%
Post-emergence action against GLXMA in % (Glycine max (GLXMA); 1.25 g/ha): 20%
Post-emergence action against ORYSA (crop plant compatibility) (Oryza sativa (ORYSA); 1.25 g/ha): 0%
Post-emergence action against ORYSA (crop plant compatibility) (Oryza sativa (ORYSA); 5 g/ha): 10%
Post-emergence action against ORYSA in % (Oryza sativa (ORYSA); 20 g/ha, crop plant compatibility): 20%
SMILES: COCCOCCOC(=O)COc1ccccc1Oc1cc(-n2c(=O)cc(C(F)(F)F)n(C)c2=O)c(F)cc1[N+](=O)[O-] [I.6-23]
Post-emergence action against PHBPU in % ([1]; dosage 1.25 g/ha): 80%
Post-emergence action against PHBPU in % ([1]; dosage 5 g/ha): 90%
Post-emergence action against PHBPU in % ([1]; dosage 20 g/ha): 100%
Post-emergence action against LOLRI in % (Lolium rigidum (LOLRI)): 90%
Post-emergence action against VERPE (Veronica persica (VERPE); 1.25 g/ha): 100%
Post-emergence action against VERPE (Veronica persica (VERPE); 5 g/ha): 100%
Post-emergence action against VERPE (Veronica persica (VERPE); 20 g/ha): 100%
Post-emergence action at 1.25 g/ha against ABUTH in % ([2]; 1.25 g/ha): 100%
Post-emergence action at 5 g/ha against ABUTH in % ([2]; 5 g/ha): 100%
Post-emergence action at 20 g/ha against ABUTH in % ([2]; 20 g/ha): 100%
Post-emergence action against VIOTR (Viola tricolor (VIOTR); 1.25 g/ha): 100%
Post-emergence action against VIOTR (Viola tricolor (VIOTR); 5 g/ha): 100%
Post-emergence action against VIOTR (Viola tricolor (VIOTR); 20 g/ha): 100%
Post-emergence action against POLCO in % ([3]; dosage 1.25 g/ha): 90%
Post-emergence action against POLCO in % ([3]; dosage 5 g/ha): 100%
Post-emergence action against POLCO in % ([3]; dosage 20 g/ha): 100%
Post-emergence action at 1.25 g/ha against AMARE in % ([4]; 1.25 g/ha): 100%
Post-emergence action at 5 g/ha against AMARE in % ([4]; 5 g/ha): 100%
Post-emergence action at 20 g/ha against AMARE in % ([4]; 20 g/ha): 100%
Post-emergence action at 20 g/ha against AVEFA in % (Avena fatua (AVEFA)): 90%
Post-emergence action at 1.25 g/ha against ECHCG in % [6]: 80%
Post-emergence action against ECHCG in % ([6]; dosage 5 g/ha): 90%
Post-emergence action against ECHCG in % ([6]; dosage 20 g/ha): 100%
Post-emergence action at 5 g/ha against ALOMY in % ([7]; 5 g/ha): 80%
Post-emergence action at 20 g/ha against ALOMY in % ([7]; 20 g/ha): 90%
Post-emergence action against MATIN in % ([8]; dosage 1.25 g/ha): 80%
Post-emergence action against MATIN in % ([8]; dosage 5 g/ha): 100%
Post-emergence action against MATIN in % ([8]; dosage 20 g/ha): 100%
Post-emergence action against SETVI (Setaria viridis (SETVI); 20 g/ha): 100%
Post-emergence action against SETVI in % (Setaria viridis (SETVI); dosage 1.25 g/ha): 100%
Post-emergence action against SETVI in % (Setaria viridis (SETVI); dosage 5 g/ha): 100%

Post-emergence action against TRZAS (crop plant compatibility) ([5]; 1.25 g/ha): 20%
Post-emergence action against TRZAS (crop plant compatibility) ([5]; 5 g/ha): 20%
Post-emergence action against TRZAS (crop plant compatibility) ([5]; 20 g/ha): 20%
Post-emergence action against ZEAMX (crop plant compatibility) (Zea mays (ZEAMX); 1.25 g/ha): 10%
Post-emergence action against GLXMA in % (Glycine max (GLXMA); 1.25 g/ha): 20%
Post-emergence action against GLXMA in % (Glycine max (GLXMA); 5 g/ha): 20%
Post-emergence action against ORYSA (crop plant compatibility) (Oryza sativa (ORYSA); 1.25 g/ha): 0%
Post-emergence action against ORYSA (crop plant compatibility) (Oryza sativa (ORYSA); 5 g/ha): 20%
SMILES: Cn1c(C(F)(F)F)cc(=O)n(-c2cc(Oc3ccccc3OCC(=O)OCC#N)c([N+](=O)[O-])cc2F)c1=O [I.6-176, Cyanomethyl (2-{4-fluoro-5-[3-methyl-2,6-dioxo-4-(trifluoromethyl)-3,6-dihydropyrimidin-1(2H)-yl]-2-nitrophenoxy}phenoxy)acetate]
pest or weed control at 1.25 g/ha ([1]; Ipomoea purpurea, 504 h, dosage 1.25 g/ha, read-out: Post-emergence action against PHBPU in %): 80%
pest or weed control at 5 g/ha ([1]; Ipomoea purpurea, 504 h, dosage 5 g/ha, read-out: Post-emergence action against PHBPU in %): 100%
pest or weed control at 20 g/ha ([1]; Ipomoea purpurea, 504 h, dosage 20 g/ha, read-out: Post-emergence action against PHBPU in %): 100%
pest or weed control at 20 g/ha (Lolium rigidum (LOLRI); Lolium rigidum, 504 h, read-out: Post-emergence action against LOLRI in %): 90%
pest or weed control at 1.25 g/ha (Veronica persica (VERPE); Veronica persica, 504 h, 1.25 g/ha, read-out: Post-emergence action against VERPE): 80%
pest or weed control at 5 g/ha (Veronica persica (VERPE); Veronica persica, 504 h, 5 g/ha, read-out: Post-emergence action against VERPE): 90%
pest or weed control at 20 g/ha (Veronica persica (VERPE); Veronica persica, 504 h, 20 g/ha, read-out: Post-emergence action against VERPE): 100%
pest or weed control at 1.25 g/ha ([2]; Abutilon theophrasti, 504 h, 1.25 g/ha, read-out: Post-emergence action at 1.25 g/ha against ABUTH in %): 100%
pest or weed control at 5 g/ha ([2]; Abutilon theophrasti, 504 h, 5 g/ha, read-out: Post-emergence action at 5 g/ha against ABUTH in %): 100%
pest or weed control at 20 g/ha ([2]; Abutilon theophrasti, 504 h, 20 g/ha, read-out: Post-emergence action at 20 g/ha against ABUTH in %): 100%
pest or weed control at 1.25 g/ha (Viola tricolor (VIOTR); Viola tricolor, 504 h, 1.25 g/ha, read-out: Post-emergence action against VIOTR): 100%
pest or weed control at 5 g/ha (Viola tricolor (VIOTR); Viola tricolor, 504 h, 5 g/ha, read-out: Post-emergence action against VIOTR): 100%
pest or weed control at 20 g/ha (Viola tricolor (VIOTR); Viola tricolor, 504 h, 20 g/ha, read-out: Post-emergence action against VIOTR): 100%
pest or weed control at 20 g/ha ([3]; Fallopia convolvulus, 504 h, dosage 20 g/ha, read-out: Post-emergence action against POLCO in %): 100%
pest or weed control at 1.25 g/ha ([4]; Amaranthus retroflexus, 504 h, 1.25 g/ha, read-out: Post-emergence action at 1.25 g/ha against AMARE in %): 100%
pest or weed control at 5 g/ha ([4]; Amaranthus retroflexus, 504 h, 5 g/ha, read-out: Post-emergence action at 5 g/ha against AMARE in %): 100%
pest or weed control at 20 g/ha ([4]; Amaranthus retroflexus, 504 h, 20 g/ha, read-out: Post-emergence action at 20 g/ha against AMARE in %): 100%
pest or weed control at 20 g/ha (Avena fatua (AVEFA); Avena fatua, 504 h, read-out: Post-emergence action at 20 g/ha against AVEFA in %): 80%
Post-emergence action at 1.25 g/ha against ECHCG in % [6]: 100%
pest or weed control at 5 g/ha ([6]; Echinochloa crus-galli, 504 h, dosage 5 g/ha, read-out: Post-emergence action against ECHCG in %): 100%
pest or weed control at 20 g/ha ([6]; Echinochloa crus-galli, 504 h, dosage 20 g/ha, read-out: Post-emergence action against ECHCG in %): 100%
pest or weed control at 5 g/ha ([7]; Alopecurus myosuroides, 504 h, 5 g/ha, read-out: Post-emergence action at 5 g/ha against ALOMY in %): 80%
pest or weed control at 20 g/ha ([7]; Alopecurus myosuroides, 504 h, 20 g/ha, read-out: Post-emergence action at 20 g/ha against ALOMY in %): 90%
pest or weed control at 5 g/ha ([8]; Tripleurospermum inodorum, 504 h, dosage 5 g/ha, read-out: Post-emergence action against MATIN in %): 80%
pest or weed control at 20 g/ha ([8]; Tripleurospermum inodorum, 504 h, dosage 20 g/ha, read-out: Post-emergence action against MATIN in %): 100%
pest or weed control at 20 g/ha (Setaria viridis (SETVI); Setaria viridis, 504 h, 20 g/ha, read-out: Post-emergence action against SETVI): 100%
pest or weed control at 1.25 g/ha (Setaria viridis (SETVI); Setaria viridis, 504 h, dosage 1.25 g/ha, read-out: Post-emergence action against SETVI in %): 100%
pest or weed control at 5 g/ha (Setaria viridis (SETVI); Setaria viridis, 504 h, dosage 5 g/ha, read-out: Post-emergence action against SETVI in %): 100%
